Test results as given in paper PMC4841789, “Synthesis and pharmacological evaluation of mono-arylimidamides as antileishmanial agents” (Bioorganic & Medicinal Chemistry Letters, 2016).
Where two headings read alike, the source gives them in different places.

Tests used:
[1] = test system: Intracellular L. amazonensis; experiment: Efficacy against intracellular L. amazonensis amastigotes; assay type: cell-based; conditions: Leishmania amazonensis
Text: (§1) Methods employed for the evaluation of the efficacy of mono-AIA target compounds against intracellular L. amazonensis[14] and intracellular L. donovani[15] and for toxicity to murine J774 macrophages[16] have been described previously. […] For ease in illustrating the antileishmanial SAR of this series of compounds, the central phenyl ring, the linker, and the terminal phenyl ring are referred to as rings A, B, and C, respectively (Fig. 1).

[2] = test system: Intracellular L. donovani; experiment: Efficacy against intracellular L. donovani amastigotes; assay type: cell-based; conditions: Leishmania donovani; means ± standard errors of at least three independent experiments
Text: as §1

[3] = test system: J774 macrophages; experiment: Toxicity to murine J774 macrophages (host cell counterscreen); assay type: cell-based; conditions: for IC50: Mus musculus; for selectivity index for intracellular Leishmania compared to J774 murine macrophages: IC50 vs J774 macrophages/IC50 vs Leishmania
Text: For ease in illustrating the antileishmanial SAR of this series of compounds, the central phenyl ring, the linker, and the terminal phenyl ring are referred to as rings A, B, and C, respectively (Fig. 1).

[4] = test system: healthy BALB/c mice; experiment: In vivo toxicity assessment in healthy BALB/c mice; conditions: i.p. 30 mg/kg/day for 5 days, dissolved in water
Procedure: (§2) Compounds 1b, 1d, and 1k were dissolved in water and administered to healthy BALB/c mice for assessment of their in vivo toxicity. […] Animals were infected with L. donovani LV82 promastigotes and then treated with different compounds one week post infection for five consecutive days. These mice were euthanized two weeks post infection and liver smear slides were prepared for the microscopic determination of parasitemia.

[5] = test system: L. donovani LV82; experiment: Murine model of visceral leishmaniasis (liver parasitemia); assay type: in vivo; conditions: L. donovani-infected mice; for suppression (inhibition) of liver parasitemia: i.p. 30 mg/kg/day for 5 days, vs untreated control
Procedure: as §2
Compounds were administered i.p. (A and B) or p.o. (C) once daily for 5 days to infected mice. Results are presented as the percentage inhibition of liver parasitemia. Bars and error bars show the mean and standard deviation, respectively (n = 4) ^*p < 0.01, compared to untreated control, ^#p < 0.05, compared to untreated control.

[6] = Plasma and tissue concentrations after a single oral dose; assay type: in vivo; conditions: mouse, mice; for concentration at 24 h: 24 h after single oral dose 100 μmol/kg (40 mg/kg); for concentration at 1 h: 1 h after single oral dose 100 μmol/kg (40 mg/kg)
Procedure: To confirm the exposure and accumulation of 1b in target organs after oral administration, plasma and tissue concentrations of this compound were determined at 1, 2 and 24 h after a single oral dose at 100 μmol/kg (or 40 mg/kg) in mice. Compound 1b accumulated in the target organs such as liver and spleen at higher concentrations (C1h = 12.6 and 4.7 μM, respectively) than in the plasma (C1h = 1.9 μM) (Fig. 3). At 24 h post dose, 1b concentrations decreased substantially to 0.14 μM in the plasma and 0.6–0.7 μM in the liver and spleen.
Figure 3 Concentration of 1b in liver ( [drawing 15] ), spleen ( [drawing 16] ), kidney ( [drawing 17] ), and plasma ( [drawing 18] ) after oral administration at a dose of 100 μmol/kg (or 40 mg/kg) to mice. Bars and error bars represent means and standard errors of triplicate determinations, respectively.

[7] = test system: intracellular L. amazonensis amastigotes; experiment: Combination study of 1b and posaconazole against intracellular L. amazonensis amastigotes; assay type: cell-based; conditions: Leishmania amazonensis; combination experiment, absence of posaconazole; read-out: IC50 of 1b alone
Text: Our efforts to explore the mechanism of antileishmanial action of the bis-AIAs led to the observation that DB766 is synergistic with posaconazole against Leishmania donovani in vitro[17]; other investigators reported in vitro antileishmanial synergy between posaconazole and the squalene synthase inhibitor E5700.[18] A combination study with 1b and posaconazole was thus performed against intracellular L. amazonensis amastigotes. […] Instead, the method described by Peters et al.[23] was employed to determine whether posaconazole enhances the potency of 1b. […] Although both assays involved incubating infected murine peritoneal macrophages with posaconazole for 72 h, de Macedo-Silva exposed peritoneal macrophages to L. amazonensis for a shorter time compared to our studies prior to removing extracellular parasites (2 h vs overnight). […] Thus, a likely explanation for the discrepancy between IC50 values for posaconazole against intracellular L. amazonensis in the two studies is the differences in assay conditions employed.
Figure 4 In vitro interactions between 1b and posaconazole against intracellular L. amazonensis. Results are presented as the IC50 of 1b alone and in different combinations. Bars and error bars show the mean and standard deviation of three independent experiments.

[8] = means ± standard errors of at least three independent experiments, values marked b: means ± range of two experiments, read-out: IC50 Intracellular L. amazonensis
[9] = murine J774 macrophages, means ± standard errors of at least three independent experiments, read-out: IC50 J774 macrophages

SMILES | IC50 [1, 8] [nM] | IC50 [2] [nM] | IC50 [3, 9] [nM] | further results
CC(C)Oc1cc(NC(=N)c2ccccn2)ccc1-c1ccco1 [Compound 1a] | 2100 ± 200 | 2400 ± 300 | 22000 | 
CC(C)Oc1cc(NC(=N)c2ccccn2)ccc1-c1ccc(-c2ccccc2)o1.CS(=O)(=O)O [Compound 1b, N-(3-isopropoxy-4-(5-phenylfuran-2-yl)phenyl)picolinimidamide methanesulfonate] | 130 ± 30 | 310 ± 10 | 13000 | selectivity index for intracellular Leishmania compared to J774 murine macrophages [3]: ≥ 25; in vivo tolerability [4]: well tolerated; suppression (inhibition) of liver parasitemia [5]: 37%; inhibition of liver parasitemia ([5]; p.o. 50 mg/kg once daily for 5 days): 37%; inhibition of liver parasitemia ([5]; p.o. 100 mg/kg/day for five days, vs control): 46%; concentration at 24 h ([6]; liver and spleen, read-out: concentration in the liver and spleen at 24 h post dose): 600 to 700 nM; concentration at 1 h ([6]; liver, read-out: liver concentration C1h): 12600 nM; concentration at 1 h ([6]; plasma, read-out: plasma concentration C1h): 1900 nM; concentration at 24 h ([6]; plasma, read-out: plasma concentration at 24 h post dose): 140 nM; concentration at 1 h ([6]; spleen, read-out: spleen concentration C1h): 4700 nM; IC50 [7]: 260 ± 50 nM
CC(C)Oc1cc(NC(=N)c2ccccn2)ccc1-c1ccc(-c2cncnc2)o1 [Compound 1c] | 1100 ± 300 | 2100 ± 400 | > 20000 | 
CC(C)Oc1cc(NC(=N)c2ccccn2)ccc1-c1ccc(-c2ccco2)o1.Cl [Compound 1d] | 250 ± 10 | 340 ± 50 | 8500 ± 800 | selectivity index for intracellular Leishmania compared to J774 murine macrophages [3]: ≥ 25; in vivo tolerability [4]: well tolerated; suppression (inhibition) of liver parasitemia [5]: 13%
CC(C)Oc1cc(NC(=N)c2ccccn2)ccc1-c1ccc(-c2cccnc2)o1 [Compound 1e] | 900 ± 230 | 1200 ± 100 | > 50000 | 
CC(C)Oc1cc(NC(=N)c2ccccn2)ccc1-c1ccc(-c2ccncc2)o1 [Compound 1f] | 2700 ± 200 | 2600 ± 100 | 22000 | 
COc1ccc(-c2ccc(-c3ccc(NC(=N)c4ccccn4)cc3OC(C)C)o2)cc1 [Compound 1g] | 820 ± 310 | 900 ± 150 | 6700 ± 900 | 
CC(C)Oc1cc(NC(=N)c2ccccn2)ccc1-c1ccc(-c2ccc(F)cc2)o1 [Compound 1h] | 920 ± 190 | 1100 ± 100 | 8000 ± 100 | 
COc1ccccc1-c1ccc(-c2ccc(NC(=N)c3ccccn3)cc2OC(C)C)o1 [Compound 1i] | 1400 ± 200 | 1300 ± 100 | 5300 ± 1000 | 
CC(C)Oc1cc(-c2ccc(-c3ccccc3)o2)ccc1NC(=N)c1ccccn1 [Compound 1j] | 1600 ± 300 | 1400 ± 300 | 13000 | 
CS(=O)(=O)O.N=C(Nc1ccc(-c2ccc(-c3ccccc3)o2)c(OC2CCCC2)c1)c1ccccn1 [Compound 1k] | 140 ± 10 | 170 ± 40 | 13000 | selectivity index for intracellular Leishmania compared to J774 murine macrophages [3]: ≥ 25; in vivo tolerability [4]: well tolerated; suppression (inhibition) of liver parasitemia [5]: 20%
CCOc1cc(NC(=N)c2ccccn2)ccc1-c1ccc(-c2ccccc2)o1 [Compound 1l] | 980 ± 70 | 850 ± 170 | 6600 ± 600 | 
COc1cc(NC(=N)c2ccccn2)ccc1-c1ccc(-c2ccccc2)o1 [Compound 1m] | 3700 ± 1300 | 1400 ± 300 | 9000 ± 2000 | 
N=C(Nc1ccc(-c2ccc(-c3ccccc3)o2)c(C(F)(F)F)c1)c1ccccn1 [Compound 1n] | > 10000 | 6100 ± 1400 | > 20000 | 
CC(C)Oc1cc(NC(=N)c2ccccn2)ccc1-c1ccc(-c2ccccc2)s1 [Compound 1o] | 2300 ± 300 | 2200 ± 500 | 6900 ± 400 | 
CC(C)Oc1cc(NC(=N)c2ncccn2)ccc1-c1ccc(-c2ccccc2)o1 [Compound 1p] | 650 ± 160 | 440 ± 60 | 12000 | 
COc1ccc(-n2cc(-c3ccc(NC(=N)c4ccccn4)cc3OC(C)C)nn2)cc1 [Compound 2] | 2900 ± 100 | 1600 ± 200 | 16000 | 
CC(C)Oc1cc(NC(=N)c2ccccn2)ccc1-c1cnc(-c2ccccc2)o1 [Compound 3] | 590 ± 60 | 1000 | 24000 | 
C[C@@H]1[C@H](O)[C@@H](C)/C=C/C=C/C=C/C=C/C=C/C=C/C=C/[C@H](O[C@@H]2O[C@H](C)[C@@H](O)[C@H](N)[C@@H]2O)C[C@@H]2O[C@](O)(C[C@@H](O)C[C@@H](O)[C@H](O)CC[C@@H](O)C[C@@H](O)CC(=O)O[C@H]1C)C[C@H](O)[C@H]2C(=O)O [amphotericin B, reference compound] | 120 ± 10 | 40 ± 3 |  | 
CCCCCCCCCCCCCCCCOP(=O)([O-])OCC[N+](C)(C)C [miltefosine, reference compound] |  |  |  | inhibition of liver parasitemia ([5]; i.p. 10 mg/kg/day for five days, 10 mg/kg/day): > 90%; inhibition of liver parasitemia ([5]; i.p. 10 mg/kg/day for five days, listed as Milt, 10 mg/kg/day): 99%; inhibition of liver parasitemia ([5]; i.p. 10 mg/kg/day for five days, listed as Miltefosine, 10 mg/kg/day): 98%; inhibition of liver parasitemia ([5]; p.o. 10 mg/kg/day for five days, 10 mg/kg/day): > 90%; inhibition of liver parasitemia ([5]; p.o. 10 mg/kg/day for five days, listed as Milt, 10 mg/kg/day): 96%
COc1cc([C@@H]2c3cc4c(cc3[C@H](O)[C@H]3COC(=O)[C@H]23)OCO4)cc(OC)c1OC [podophyllotoxin, reference compound] |  |  |  | IC50 ([3]; J774, read-out: IC50 J774 macrophages): 24 ± 5 nM
CC[C@@H]([C@H](C)O)n1ncn(-c2ccc(N3CCN(c4ccc(OC[C@@H]5CO[C@@](Cn6cncn6)(c6ccc(F)cc6F)C5)cc4)CC3)cc2)c1=O [posaconazole, reference compound] |  |  |  | IC50 ([1]; Peritoneal macrophage, infected murine peritoneal macrophages, 72 h, low solubility at higher concentrations, read-out: IC50 against intracellular L. amazonensis): > 10000 nM
